Results taken from ChEMBL document CHEMBL1143682, “Investigation into the P3 binding domain of m-calpain using photoswitchable diazo- and triazene-dipeptide aldehydes: new anticataract agents” (J Med Chem, 2007).

Test: Inhibition of sheep M-calpain by fluorescence based assay
Design: species or system Ovis aries

Work on `CC(C)[C@H](NC(=O)c1cccc(/N=N/c2ccccc2)c1)C(=O)N[C@H](C=O)Cc1ccccc1` yielded an IC50 of 170 nM.
With `CC(C)[C@H](NC(=O)c1ccc(/N=N/c2ccccc2)cc1)C(=O)N[C@H](C=O)Cc1ccccc1` the IC50 was 35 nM.
